# Experimental data as given in patent US10919916B2, “Boron-containing small molecules” (Bill & Melinda Gates Foundation, priority 2016, dated 2021).
# Where a name gives a salt, the structure may show the parent alone. Read-outs that look alike come from different tables or passages of the source.
# Key:
# [1] = tested on: Staphylococcus aureus, MRSA (ATCC 33591); experiment: Antibacterial MIC assay (microbroth dilution, CLSI); type: cell-based; conditions: read-out: MIC Staphylococcus aureus, MRSA (ATCC 33591)
# Source text: (§1) All MIC testing of bacteria followed the Clinical and Laboratory Standards Institute (CLSI) guidelines for antimicrobial testing of aerobic bacteria (Methods for Dilution Antimicrobial Susceptibility Tests for Bacteria that Grow Aerobically; Approved Standard—Tenth Edition, M07-A10; Performance Standards for Antimicrobial Susceptibility Testing; Twenty-fifth Informational Supplement, M100-S25).
# (§2) Briefly, the microbroth dilution MIC method was used to quantitatively measure the in vitro antibacterial activity of a compound against a given bacterial isolate. The following bacterial strains were evaluated: Staphylococcus aureus, MRSA (ATCC 33591) and Streptococcus pneumoniae (ATCC 49619). Bacteria were grown in cation-adjusted Mueller-Hinton broth, with additions as required per species growth requirements (e.g. 3% lysed horse blood for fastidious organisms such as S. pneumoniae). A direct colony suspension in saline was prepared from colonies on an overnight agar plate to achieve a turbidity equivalent to 0.5 McFarland standard, which was subsequently diluted into the assay plate to achieve 5×10^5 CFU/mL. Assays plates were prepared by 2-fold dilution of compound across the plate and included a positive growth control.
# [2] = tested on: Streptococcus pneumoniae (ATCC 49619); experiment: as above; type: cell-based
# Source text: as §1
# as §2, with “The following bacterial strains were evaluated: Staphylococcus aureus, MRSA (ATCC 33591) and Streptococcus pneumoniae (ATCC 49619).” left out
# [3] = ATCC49619, read-out: MIC Streptococcus pneumoniae (ATCC 49619)
# [4] = microbroth dilution, cation-adjusted Mueller-Hinton broth, 35° C. for 16-20 hours
# [5] = ATCC49619, microbroth dilution, 3% lysed horse blood, 35° C. for 16-20 hours, read-out: MIC Streptococcus pneumoniae (ATCC 49619)
Compound,MIC [1] [µg/mL],"MIC [2, 3] [µg/mL]","MIC [1, 4] [µg/mL]","MIC [2, 5] [µg/mL]"
"C=C[C@]1(C)C[C@@H](OC(=O)COc2ccc3c(c2)B(O)ON=C3)[C@]2(C)[C@H](C)CC[C@]3(CCC(=O)[C@H]32)[C@@H](C)[C@@H]1O [Compound 96, (3aR,4R,5R,7S,8S,9R,9aS,12R)-8-hydroxy-4,7,9,12-tetramethyl-3-oxo-7-vinyldecahydro-4,9a-propanocyclopenta[8]annulen-5-yl 2-((1-hydroxy-1H-benzo[d][1,2,6]oxazaborinin-7-yl)oxy)acetate]",< 0.25,0.5 to 2,,
"C=C[C@]1(C)C[C@@H](OC(=O)COc2ccc3c(c2F)B(O)N(C(=O)OC)N=C3)[C@]2(C)[C@H](C)CC[C@]3(CCC(=O)[C@H]32)[C@@H](C)[C@@H]1O [Compound 93, Methyl 8-fluoro-1-hydroxy-7-(2-(((3aR,4R,5R,7S,8S,9R,9aS,12R)-8-hydroxy-4,7,9,12-tetramethyl-3-oxo-7-vinyldecahydro-4,9a-propanocyclopenta[8]annulen-5-yl)oxy)-2-oxoethoxy)benzo[d][1,2,3]diazaborinine-2(1H)-carboxylate]",< 0.25,0.5 to 2,,
"C=C[C@]1(C)C[C@@H](OC(=O)COc2ccc3c(c2)B(O)N(C(C)=O)N=C3)[C@]2(C)[C@H](C)CC[C@]3(CCC(=O)[C@H]32)[C@@H](C)[C@@H]1O [Compound 87, (3aR,4R,5R,7S,8S,9R,9aS,12R)-8-hydroxy-4,7,9,12-tetramethyl-3-oxo-7-vinyldecahydro-4,9a-propanocyclopenta[8]annulen-5-yl 2-((2-acetyl-1-hydroxy-1,2-dihydrobenzo[d][1,2,3]diazaborinin-7-yl)oxy)acetate]",< 0.25,< 0.25,,
"C=C[C@]1(C)C[C@@H](OC(=O)COc2cc(CN)c3c(c2)B(O)OC3)[C@]2(C)[C@H](C)CC[C@]3(CCC(=O)[C@H]32)[C@@H](C)[C@@H]1O.Cl [Compound 12, (3aR,4R,5R,7S,8S,9R,9aS,12R)-8-hydroxy-4,7,9,12-tetramethyl-3-oxo-7-vinyldecahydro-4,9a-propanocyclopenta[8]annulen-5-yl 2-((4-(aminomethyl)-1-hydroxy-1,3-dihydrobenzo[c][1,2]oxaborol-6-yl)oxy)acetate Hydrochloride]",,,< 0.25,< 0.25
"C=C[C@]1(C)C[C@@H](OC(=O)COc2ccc3c(c2)B(O)N(C(=O)OC(C)(C)C)N=C3)[C@]2(C)[C@H](C)CC[C@]3(CCC(=O)[C@H]32)[C@@H](C)[C@@H]1O [Compound 71, tert-butyl 1-hydroxy-7-(2-(((3aR,4R,5R,7S,8S,9R,9aS,12R)-8-hydroxy-4,7,9,12-tetramethyl-3-oxo-7-vinyldecahydro-4,9a-propanocyclopenta[8]annulen-5-yl)oxy)-2-oxoethoxy)benzo[d][1,2,3]diazaborinine-2(1H)-carboxylate]",< 0.25,< 0.25,,
"C=C[C@]1(C)C[C@@H](OC(=O)COc2ccc3c(c2)COB3O)[C@]2(C)[C@H](C)CC[C@]3(CCC(=O)[C@H]32)[C@@H](C)[C@@H]1O [Compound 32, (3aR,4R,5R,7S,8S,9R,9aS,12R)-8-hydroxy-4,7,9,12-tetramethyl-3-oxo-7-vinyldecahydro-4,9a-propanocyclopenta[8]annulen-5-yl 2-((1-hydroxy-1,3-dihydrobenzo[c][1,2]oxaborol-5-yl)oxy)acetate]",< 0.25,0.5 to 2,,
"C=C[C@]1(C)C[C@@H](OC(=O)COc2ccc3c(c2Cl)B(O)OC3CN)[C@]2(C)[C@H](C)CC[C@]3(CCC(=O)[C@H]32)[C@@H](C)[C@@H]1O (stereo partly drawn) [Compound 31, (3aR,4R,5R,7S,8S,9R,9aS,12R)-8-hydroxy-4,7,9,12-tetramethyl-3-oxo-7-vinyldecahydro-4,9a-propanocyclopenta[8]annulen-5-yl 2-((3-(aminomethyl)-7-chloro-1-hydroxy-1,3-dihydrobenzo[c][1,2]oxaborol-6-yl)oxy)acetate Hydrochloride]",0.5 to 2,0.5 to 2,,
"C=C[C@]1(C)C[C@@H](OC(=O)CNc2cc3c(cc2CN)COB3O)[C@]2(C)[C@H](C)CC[C@]3(CCC(=O)[C@H]32)[C@@H](C)[C@@H]1O [Compound 47, (3aR,4R,5R,7S,8S,9R,9aS,12R)-8-hydroxy-4,7,9,12-tetramethyl-3-oxo-7-vinyldecahydro-4,9a-propanocyclopenta[8]annulen-5-yl (5-(aminomethyl)-1-hydroxy-1,3-dihydrobenzo[c][1,2]oxaborol-6-yl)glycinate]",,,0.5 to 2,4 to 32
"C=C[C@]1(C)C[C@@H](OC(=O)COc2ccc3c(c2C)B(O)N(C(=O)OC)N=C3)[C@]2(C)[C@H](C)CC[C@]3(CCC(=O)[C@H]32)[C@@H](C)[C@@H]1O [Compound 94, Methyl 1-hydroxy-7-(2-(((3aR,4R,5R,7S,8S,9R,9aS,12R)-8-hydroxy-4,7,9,12-tetramethyl-3-oxo-7-vinyldecahydro-4,9a-propanocyclopenta[8]annulen-5-yl)oxy)-2-oxoethoxy)-8-methylbenzo[d][1,2,3]diazaborinine-2(1H)-carboxylate]",< 0.25,0.5 to 2,,
"C=C[C@]1(C)C[C@@H](OC(=O)COc2ccc3c(c2)NB(C)C=C3)[C@]2(C)[C@H](C)CC[C@]3(CCC(=O)[C@H]32)[C@@H](C)[C@@H]1O [Compound 104, (3aR,4R,5R,7S,8S,9R,9aS,12R)-8-hydroxy-4,7,9,12-tetramethyl-3-oxo-7-vinyldecahydro-4,9a-propanocyclopenta[8]annulen-5-yl 2-((2-methyl-1,2-dihydrobenzo[e][1,2]azaborinin-7-yl)oxy)acetate]",,,< 0.25,0.5 to 2
"C=C[C@]1(C)C[C@@H](OC(=O)COc2ccc3c(c2)B(O)NN=C3)[C@]2(C)[C@H](C)CC[C@]3(CCC(=O)[C@H]32)[C@@H](C)[C@@H]1O [Compound 72, (3aR,4R,5R,7S,8S,9R,9aS,12R)-8-hydroxy-4,7,9,12-tetramethyl-3-oxo-7-vinyldecahydro-4,9a-propanocyclopenta[8]annulen-5-yl 2-((1-hydroxy-1,2-dihydrobenzo[d][1,2,3]diazaborinin-7-yl)oxy)acetate]",< 0.25,< 0.25,,
"C=C[C@]1(C)C[C@@H](OC(=O)NCc2ccc3c(c2F)B(O)OC3)[C@]2(C)[C@H](C)CC[C@]3(CCC(=O)[C@H]32)[C@@H](C)[C@@H]1O [Compound 57, (3aR,4R,5R,7S,8S,9R,9aS,12R)-8-hydroxy-4,7,9,12-tetramethyl-3-oxo-7-vinyldecahydro-4,9a-propanocyclopenta[8]annulen-5-yl ((7-fluoro-1-hydroxy-1,3-dihydrobenzo[c][1,2]oxaborol-6-yl)methyl)carbamate]",< 0.25,0.5 to 2,,
"C=C[C@]1(C)C[C@@H](OC(=O)CNCc2ccc3c(c2)B(O)OC3(C)C)[C@]2(C)[C@H](C)CC[C@]3(CCC(=O)[C@H]32)[C@@H](C)[C@@H]1O [Compound 60, (3aR,4R,5R,7S,8S,9R,9aS,12R)-8-hydroxy-4,7,9,12-tetramethyl-3-oxo-7-vinyldecahydro-4,9a-propanocyclopenta[8]annulen-5-yl ((1-hydroxy-3,3-dimethyl-1,3-dihydrobenzo[c][1,2]oxaborol-6-yl)methyl)glycinate]",0.5 to 2,4 to 32,,
"C=C[C@]1(C)C[C@@H](OC(=O)CNc2ccc3c(c2)B(O)OC3(C)C)[C@]2(C)[C@H](C)CC[C@]3(CCC(=O)[C@H]32)[C@@H](C)[C@@H]1O [Compound 51, (3aR,4R,5R,7S,8S,9R,9aS,12R)-8-hydroxy-4,7,9,12-tetramethyl-3-oxo-7-vinyldecahydro-4,9a-propanocyclopenta[8]annulen-5-yl (1-hydroxy-3,3-dimethyl-1,3-dihydrobenzo[c][1,2]oxaborol-6-yl)glycinate]",< 0.25,0.5 to 2,,
"C=C[C@]1(C)C[C@@H](OC(=O)COc2ccc3c(c2F)B(O)OCC3)[C@]2(C)[C@H](C)CC[C@]3(CCC(=O)[C@H]32)[C@@H](C)[C@@H]1O [Compound 68, (3aR,4R,5R,7S,8S,9R,9aS,12R)-8-hydroxy-4,7,9,12-tetramethyl-3-oxo-7-vinyldecahydro-4,9a-propanocyclopenta[8]annulen-5-yl 2-((8-fluoro-1-hydroxy-3,4-dihydro-1H-benzo[c][1,2]oxaborinin-7-yl)oxy)acetate]",,,< 0.25,0.5 to 2
"C=C[C@]1(C)C[C@@H](OC(=O)Nc2ccc3c(c2)B(O)OC3)[C@]2(C)[C@H](C)CC[C@]3(CCC(=O)[C@H]32)[C@@H](C)C1=O [Compound 43, (3aR,4R,5R,7S,9R,9aS,12R)-4,7,9,12-tetramethyl-3,8-dioxo-7-vinyldecahydro-4,9a-propanocyclopenta[8]annulen-5-yl (1-hydroxy-1,3-dihydrobenzo[c][1,2]oxaborol-6-yl)carbamate]",,,0.5 to 2,0.5 to 2
